Results from the NIST ThermoML archive (doi:10.1021/je025610o).

Details: 100 kPa, Liquid, Capillary tube (Ostwald / Ubbelohde) method

OCCO [1,2-ethanediol]
Details	viscosity [mPa·s]
295.55 K	19.1
313.05 K	9.74
333.1 K	5.24
353.05 K	3.13
372.15 K	2.06
392.45 K	1.44
412.25 K	1.07
428.3 K	0.867
